From US10596145B2, “Heterocyclic flavone derivatives, compositions, and methods related thereto” (Emory University, priority 2012, dated 2020)
“Also recorded” adds a separate entry of the source.

Legend:
TrkB [1] = target: T1, TrkB (Rattus norvegicus, UniProt Q63604); assay: TrkB activation in primary cortical neurons (immunoblotting); type: cell-based; settings: 500 nM, 15 min
T1 construct: endogenous in cells; host or cells: primary cortical neurons from E17 rat embryos
Protocol: Primary cortical cultures from E17 rat embryos were treated with 500 nM of various synthetic flavone derivatives for 15 min. The cell lysates (20 μg) were analyzed by the immunoblotting.
Rat primary neurons were treated with 500 nM various indicated compounds from 15 min. The neuronal lysates ([…]) were analyzed with various antibodies.
500 nM of different synthetic compounds were added to DIV 7 neurons for 15 min. The cell lysates were analyzed by immunoblotting with indicated p-Akt 473 antibodies.
Replacing the 3′-dimethylamino group or 4′-morpholino group was tested for TrkB agonistic activity. To compare the TrkB activation by these compounds, primary cortical cultures were prepared and treated them with 500 nM of various compounds for 15 min and collected the cell lysates. […] The p-Akt ELISA analysis results were similar to the TrkB activation pattern (FIG. 2B, lower panel).

[2] = In vivo metabolism studies of 7,8-DHF
From the text: Among the modifications, glucuronidation and sulfation are thought to be responsible for the in vivo metabolism of the flavonoids. In addition, the O-methylated metabolites were detected in both the plasma and brain samples after oral administration. These modification pathways may explain the relatively short half-life of 7,8-DHF. Alteration of this labile group into the bioisosteric imidazole derivative escalates the PK profiles in compound o.

[3] = Metabolite investigation of the methylated metabolites of 7,8-DHF
Protocol: In order to increase the hydrophobicity, EU-B-related compounds were prepared by keeping the urea functional group. In metabolite investigation of the methylated metabolites of 7,8-DHF, it was discovered that that 7-methoxy-8-hydroxy metabolite is active. A methyl group was added on the urea group.

Akt = assay: Downstream Akt activation in mouse brain (p-Akt immunoblotting, p-Akt 473 ELISA); type: in vivo
Protocol: PathScan Phospho-Akt1 (Ser473) Sandwich ELISA kit was purchased from Cell Signaling (Cat. #7160). 100 μl sample in sample diluent (supplied in the kit) was added to each well and incubated overnight at 4° C. After 4× wash with 200 ul wash buffer (supplied in the kit), 100 ul/well detection antibody was added and incubated for 1 hour at 37° C. After 4× wash, 100 μl of HRP-linked secondary antibody (supplied in the kit) was added and incubated for 30 minutes at 37° C. After a final wash, 100 μl of TMB substrate was added to each well and incubated for 10 minutes at 37° C. The reaction was stopped by adding 100 μl/well stop solution. Record the values of each well using microplate reader at 450 nm and 650 nm. The optical density was determined by the subtraction of the reading at 650 nm from the reading s at 450 nm.
(§1) Male C57BL/6 mice aged of two months were administrated orally with 4′-DMA-7,8-DHF derivatives at a single dose of 1 mg/kg for 4 h. The control mice were injected with saline. The mice were sacrificed and brains were homogenated and ultracentrafuged. The supernatant (40 μg) was employed for SDS-PAGE and immunoblotting analysis with indicated antibodies, respectively. Male C57BL/6 mice aged of two months were administrated orally with compound (i) or (m) at the dose of 5 mg/kg/day each and compound o or p at the dose of 2.5 mg/kg/day each for 21 days. BrdU (100 mg/kg) was i. p. injected two hours before the TrkB agonist treated animals were sacrificed and the hippocampal section lysates were analyzed by immunoblotting with p-TrkB and total TrkB antibodies, p-AKT ELISA.

[4] = In vivo pharmacokinetic studies in mice; design: species or system mouse; settings: mice
Protocol: For compound a, the standard dosage of 1 mg/kg via i.v. injection and 5 mg/kg for P.O. route was employed. […] Presumably, the dosage is too low for the in vivo PK assay. Thus, the doses of the tested compound o were increased. […] Moreover, the bioavailability is around 2% for compound o at a 10 mg/kg dosage.
Twenty to thirty grams mice within the age of 6-8 weeks old were administrated with the indicated compounds i. v. or orally. At different time points (3, 10, 30, 60, 120, 240, 360 and 480 min), blood aliquots (300-400 μl) were collected in tubes coated with lithium heparin, mixed gently, then kept on ice and centrifuged at 2500×g for 15 min at 4° C., within 1 h of collection. The plasma was then harvested and kept frozen at −20° C. until further processing. For each time point, 3 mice/group were employed. The plasma samples were analyzed by HPLC.

TrkB [5] = target: T2, TrkB (Mus musculus, UniProt P15209); assay: TrkB phosphorylation in mouse brain after oral administration (immunoblotting, immunohistochemistry); type: in vivo
T2 construct: from tissue; host or cells: mouse brain (hippocampus, cortex), C57BL/6
T2 sequence (P15209 32-821): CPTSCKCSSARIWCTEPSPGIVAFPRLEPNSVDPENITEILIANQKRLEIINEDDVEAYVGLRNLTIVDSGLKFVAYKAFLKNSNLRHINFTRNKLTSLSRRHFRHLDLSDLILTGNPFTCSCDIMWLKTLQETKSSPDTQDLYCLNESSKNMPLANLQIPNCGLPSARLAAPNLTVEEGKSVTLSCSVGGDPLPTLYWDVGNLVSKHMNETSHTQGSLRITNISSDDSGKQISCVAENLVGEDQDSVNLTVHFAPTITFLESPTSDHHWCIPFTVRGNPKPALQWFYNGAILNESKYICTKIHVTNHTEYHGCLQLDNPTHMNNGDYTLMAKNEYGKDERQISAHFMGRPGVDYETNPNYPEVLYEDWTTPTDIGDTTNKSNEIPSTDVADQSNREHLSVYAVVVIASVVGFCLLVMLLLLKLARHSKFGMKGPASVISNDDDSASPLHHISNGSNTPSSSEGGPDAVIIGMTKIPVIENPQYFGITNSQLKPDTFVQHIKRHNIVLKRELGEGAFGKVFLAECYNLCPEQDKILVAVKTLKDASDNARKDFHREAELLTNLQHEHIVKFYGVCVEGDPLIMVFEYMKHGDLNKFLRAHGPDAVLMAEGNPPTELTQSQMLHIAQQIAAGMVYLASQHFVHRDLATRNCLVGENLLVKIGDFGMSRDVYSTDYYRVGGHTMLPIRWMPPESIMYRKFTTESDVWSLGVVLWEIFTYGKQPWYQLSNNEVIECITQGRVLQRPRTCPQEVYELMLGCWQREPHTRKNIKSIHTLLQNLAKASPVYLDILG
Protocol: One mg/kg of various indicated compounds were orally administrated into C57 BL/6J mice and TrkB phosphorylation and its downstream signaling cascades including Akt and MAPK in the hippocampus of mouse brain were analyzed by immunoblotting at 4 h. […] The downstream p-Akt and p-MAPK activity coupled to the TrkB activation patterns.
Time course assay with 4′-dimethylamino-7,8-imidazole flavone. One mg/kg of compound (i) and compound (m) were orally administrated into C57 BL/6J mice and TrkB phosphorylation and its downstream signaling cascades including Akt in mouse brain were analyzed by immunoblotting at various time points. TrkB activation by compound m peaked at 4 h, whereas the maximal TrkB activation by compound i in mouse brain occurred at 1-2 h. Arrows indicate the p-TrkB in mature glycosylated or unglycosylated forms (top panels). The downstream Akt activation pattern tightly correlated with the upstream TrkB activation.
as §1
Brain tissues were fixed in 4% paraformaldehyde overnight followed by paraffin embedding. Sections of 6 μm were cut. For immunohistochemical staining, brain sections were deparaffinized in xylene and rehydrated in graded alcohols. Endogenous peroxidase activity was blocked by 3% hydrogen peroxide for 5 min and all slides were boiled in 10 mM sodium citrate buffer (pH 6.0) for 10 min. Phosphorylated TrkB 816 and TrkB were detected using specific antibodies. Paraffin section were deparaffinized in xylene and rehydrated gradient ethanol solution. Samples were boiled in 10 mM sodium citrate buffer for 20 min for antigen retrieval purpose. Brain sections were incubated with anti-TrkB (BD Biosciences, San Jose, Calif.) 1:50, p-TrkB 1:300 dilution. Secondary antibody was applied using anti-rabbit-Alexa 594 (red), anti-mouse-fluorescein isothiocyanate (FITC) (green). DAPI (blue) was used for nuclear staining.

HepG2 cells = assay: In vitro cytotoxicity assay with HepG2 cells; type: cell-based; settings: micronucleus and comet assays
Protocol: HepG2 cells were treated with various concentrations of flavonoids for 24 h. The drug-treated cells were subjected to trypan blue exclusive assay. Data are presented as mean±SEM. (n=3, ***P<0.0001 vs vehicle).
In vitro and in vivo ADMET (ADME plus toxicity) of certain compounds were examined. […] Micronuclei formation is an important endpoint in genotoxicity study. […] Next, a Comet assay was performed with 100 μM drug-treated HepG2 cells. As a positive control, etoposide, a topoisomerase inhibitor, which causes DNA strand breaks was used.

C57BL/6J mice [6] = assay: Locomotor activity assay; type: in vivo, mouse; settings: 2.5 mg/kg oral, 3 weeks
Protocol: The above drug-treated mice were subjected locomotor activity at day 22. […] Data are presented as mean±SEM.
Locomotor activity was assessed using an automated system (San Diego Instruments, La Jolla, Calif., USA) with photobeams that recorded ambulations (consecutive beam breaks). Drug-treated mice were placed in the locomotor chambers, and their activity was recorded for 2 h with 30 min interval.

CYP1A2 = target: T3, CYP1A2 (Homo sapiens, UniProt P05177); assay: CYP screen inhibition; type: in vitro ADME; settings: at 3 μM
T3 sequence (P05177 1-516): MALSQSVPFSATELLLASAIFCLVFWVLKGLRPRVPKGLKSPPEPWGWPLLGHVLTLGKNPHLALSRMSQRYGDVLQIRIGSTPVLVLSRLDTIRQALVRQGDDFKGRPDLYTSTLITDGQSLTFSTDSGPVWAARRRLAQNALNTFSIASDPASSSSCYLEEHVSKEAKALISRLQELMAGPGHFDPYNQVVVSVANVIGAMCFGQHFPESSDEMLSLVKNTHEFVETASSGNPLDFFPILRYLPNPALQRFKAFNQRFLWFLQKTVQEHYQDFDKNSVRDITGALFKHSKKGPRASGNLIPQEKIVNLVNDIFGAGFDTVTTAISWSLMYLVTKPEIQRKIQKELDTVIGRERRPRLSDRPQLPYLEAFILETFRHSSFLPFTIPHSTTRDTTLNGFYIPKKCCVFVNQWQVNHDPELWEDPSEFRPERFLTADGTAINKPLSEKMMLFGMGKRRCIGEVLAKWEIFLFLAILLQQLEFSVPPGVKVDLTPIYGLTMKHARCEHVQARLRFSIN
Protocol: At 30 μM, the inhibition patterns contained similar trends. To test the possible cardiovascular toxicity, hERG inhibition triggered by compound o was examined.

[7] = Human liver microsomal stability assay; type: in vitro ADME; settings: human liver microsomes, 1 h incubation
From the text: (§2) To explore these compounds' in vitro ADMET profiles, we conducted numerous in vitro assays.

C57BL/6J mice [8] = assay: Forced swim test; type: in vivo, mouse; settings: 2.5 mg/kg oral, 21 days
Protocol: Male C57BL/6J mice (6 mice/group) were orally administrated by gavage with 5 mg/kg compound (m) or compound (i) and vehicle solvent saline for 21 days and subjected to a forced swim test (6 min, immobility recorded in the last 4 min). Data are presented as mean±SEM. (n=6, ***P<0.0001 vs vehicle, Student t-test).
Forced swim test. Male C57BL/6J mice (8 mice/group) were orally administrated by gavage with 2.5 mg/kg compound o or compound p and vehicle solvent saline for 21 days and subjected to a forced swim test (6 min, immobility recorded in the last 4 min). […] Data are presented as mean±SEM.
Adult male mice (2-3 months old) were randomly submitted to a forced swim test without a preswim. Test compounds were orally administrated by gavage for 21 days. The mice were allowed to adapt to the test room for 2 days. The mice were placed in a clear glass cylinder with a diameter of 16 cm, half-filled with clear water at 24° C.

[9] = Reactive metabolic screening assay; type: in vitro ADME; settings: liver microsomal lysates
From the text: as §2

T1 sequence (Q63604 32-821): as the sequence (P15209 32-821) above, with T3M, S9T, A10T, V32I, R63K, S84G, M153T, L185I, S394T, S770N counted along it

## CN(C)c1cccc(-c2cc(=O)c3ccc(O)c(O)c3o2)c1 [3′-dimethylamino-7,8-DHF]
TrkB [1]
  TrkB activation (p-TrkB immunoblotting): comparable activity as compound a

## O=c1cc(-c2ccc(N3CCOCC3)cc2)oc2c(O)c(O)ccc12 [4′-morpholino-7,8-DHF]
TrkB [1]
  TrkB activation (p-TrkB immunoblotting): comparable activity as compound a

## O=c1cc(-c2ccccc2)oc2c(O)c(O)ccc12 [7,8-DHF, 7,8-dihdyroxyflavone]
[2]
  in vivo metabolic modifications: subjected to oxidation, glucuronidation, sulfation and methylation

## COc1ccc2c(=O)cc(-c3ccccc3)oc2c1O [7-methoxy-8-hydroxy metabolite]
[3]
  activity of methylated metabolite: is active

## CN(C)c1ccc(-c2cc(=O)c3ccc(O)c(O)c3o2)cc1 [compound a, 4′-DMA-7,8-DHF, reference compound]
Akt; 1 mg/kg oral, at 4 h
  downstream p-Akt and p-MAPK signalings: strongly activated
[4]; 1 mg/kg i.v.
  AUClast: about 5930 min*ng/ml
  in vivo half-life, t1/2: around 9 min
[4]; 5 mg/kg P.O.
  bioavailability: not measurable
TrkB [5]; 1 mg/kg oral, hippocampus, at 4 h
  TrkB activation in mouse brain: activated the TrkB receptor; also recorded: strongest TrkB stimulatory effect

## O=c1cc(-c2ccc(N3CCCC3)cc2)oc2c1ccc1nc[nH]c12 [compound n, 8-(4′-(pyrrolidino-)phenyl)chromeno[7,8-d]imidazol-6(1H)-one]
HepG2 cells
  cytotoxicity or genotoxicity (overall conclusion): negligible cytotoxicity or genotoxicity

## O=c1cc(-c2ccc(N3CCCC3)cc2)oc2c1ccc1cc[nH]c12 [compound p, 2-(4-(pyrrolidin-1-yl)phenyl)pyrano[3,2-g]indol-4(9H)-one]
C57BL/6J mice [6]
  locomotor activity: neither compound o nor p altered the motion activity
Akt; 2.5 mg/kg/day oral, 3 weeks
  Akt activation (quantitative p-Akt ELISA): notably activated Akt
CYP1A2
  CYP1A2 inhibition: 37.4%
HepG2 cells
  cytotoxicity or genotoxicity (overall conclusion): negligible cytotoxicity or genotoxicity
TrkB [1]
  TrkB activation (p-TrkB immunoblotting): higher activity than compound m
[7]
  remaining unchanged after incubation: 1.2%
TrkB [5]; 2.5 mg/kg/day oral, 21 days
  TrkB phosphorylation after chronic treatment (immunoblotting): markedly activated TrkB receptor; also recorded: evidently elevated TrkB phosphorylation
TrkB [5]; 2.5 mg/kg/day oral, chronic
  TrkB phosphorylation in hippocampus (immunohistochemistry, anti-p-TrkB 816): elevated TrkB phosphorylation in hippocampus
C57BL/6J mice [8]
  immobility in forced swim test: but not compound p significantly decreased the immobility
[9]
  reactive metabolite / adduct formation: formed numerous adducts
